Source: PubChem BioAssay (NCI)
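Growth conditions: 96-well plates. Treatment: test compound, 48 hours, 5 concentrations. Analysis: linear interpolation between bracketing concentrations; unreached endpoints set to highest concentration. Definition used: TGI = concentration required for complete inhibition of growth.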

What was measured:
Test in all cases: NCI anticancer screen, dose series, 48 h
UACC-62 melanoma = system: UACC-62 melanoma
KM20L2 colon = system: KM20L2 colon
SK-MEL-28 melanoma = system: SK-MEL-28 melanoma
NCI-H522 lung = system: NCI-H522 lung
DMS 114 small cell lung = system: DMS 114 small cell lung
EKVX NSCLC = system: EKVX NSCLC
MALME-3M melanoma = system: MALME-3M melanoma
COLO 205 colon = system: COLO 205 colon
HL-60(TB) leukemia = system: HL-60(TB) leukemia
A549 NSCLC = system: A549 NSCLC
OVCAR-8 ovarian = system: OVCAR-8 ovarian
SF-539 CNS = system: SF-539 CNS
SW-620 colon = system: SW-620 colon
TK-10 renal = system: TK-10 renal
M14 melanoma = system: M14 melanoma
IGROV1 ovarian = system: IGROV1 ovarian
CCRF-CEM leukemia = system: CCRF-CEM leukemia
HT29 colon = system: HT29 colon
SNB-75 CNS = system: SNB-75 CNS
UACC-257 melanoma = system: UACC-257 melanoma
OVCAR-5 ovarian = system: OVCAR-5 ovarian
HCC-2998 colon = system: HCC-2998 colon
CAKI-1 renal = system: CAKI-1 renal
NCI-H23 lung = system: NCI-H23 lung
ACHN renal = system: ACHN renal
K-562 leukemia = system: K-562 leukemia
SN12C renal = system: SN12C renal
OVCAR-3 ovarian = system: OVCAR-3 ovarian
M19-MEL melanoma = system: M19-MEL melanoma
SF-295 CNS = system: SF-295 CNS
U251 CNS = system: U251 CNS
MOLT-4 leukemia = system: MOLT-4 leukemia
RPMI-8226 leukemia = system: RPMI-8226 leukemia
HCT-116 colon = system: HCT-116 colon
KM12 colon = system: KM12 colon
OVCAR-4 ovarian = system: OVCAR-4 ovarian
HOP-92 NSCLC = system: HOP-92 NSCLC
SF-268 CNS = system: SF-268 CNS
SNB-19 CNS = system: SNB-19 CNS
A498 renal = system: A498 renal
NCI-H460 lung = system: NCI-H460 lung
SK-MEL-5 melanoma = system: SK-MEL-5 melanoma
HCT-15 colon = system: HCT-15 colon
UO-31 renal = system: UO-31 renal
SK-OV-3 ovarian = system: SK-OV-3 ovarian
DLD-1 colon = system: DLD-1 colon
HOP-62 NSCLC = system: HOP-62 NSCLC
XF 498 CNS = system: XF 498 CNS
HS 578T breast = system: HS 578T breast
LOX IMVI melanoma = system: LOX IMVI melanoma
MCF7 breast = system: MCF7 breast
NCI-H226 lung = system: NCI-H226 lung
DU-145 prostate = system: DU-145 prostate
RXF 393 renal = system: RXF 393 renal
MDA-MB-231 breast = system: MDA-MB-231 breast
MDA-N = system: MDA-N
T-47D breast = system: T-47D breast
NCI/ADR-RES ovarian = system: NCI/ADR-RES ovarian
SK-MEL-2 melanoma = system: SK-MEL-2 melanoma
BT-549 breast = system: BT-549 breast
MDA-MB-435 = system: MDA-MB-435
786-0 renal = system: 786-0 renal
SR leukemia = system: SR leukemia
PC-3 prostate = system: PC-3 prostate

For `CC(C)OP(=O)(OC(C)C)c1nn(-c2ccc([N+](=O)[O-])cc2)c(=N)s1`, the TGI (UACC-62 melanoma) was > 100 µM, the TGI (KM20L2 colon) was > 100 µM and the TGI (SK-MEL-28 melanoma) was > 100 µM. The TGI (NCI-H522 lung) was > 100 µM, the TGI (DMS 114 small cell lung) was > 100 µM and the TGI (EKVX NSCLC) was > 100 µM. For the same molecule, the TGI (MALME-3M melanoma) was > 100 µM, the TGI (COLO 205 colon) was > 100 µM and the TGI (HL-60(TB) leukemia) was > 100 µM. The TGI (A549 NSCLC) was > 100 µM, the TGI (OVCAR-8 ovarian) was > 100 µM and the TGI (SF-539 CNS) was > 100 µM. For the same molecule, the TGI (SW-620 colon) was > 100 µM, the TGI (TK-10 renal) was > 100 µM and the TGI (M14 melanoma) was > 100 µM. The TGI (IGROV1 ovarian) was > 100 µM, the TGI (CCRF-CEM leukemia) was > 100 µM and the TGI (HT29 colon) was > 100 µM. For the same molecule, the TGI (SNB-75 CNS) was 95.5 µM, the TGI (UACC-257 melanoma) was > 100 µM and the TGI (OVCAR-5 ovarian) was > 100 µM. The TGI (HCC-2998 colon) was > 100 µM, the TGI (CAKI-1 renal) was > 100 µM and the TGI (NCI-H23 lung) was > 100 µM. For the same molecule, the TGI (ACHN renal) was > 100 µM, the TGI (K-562 leukemia) was > 100 µM and the TGI (SN12C renal) was > 100 µM. For the same molecule, the TGI (OVCAR-3 ovarian) was > 100 µM, the TGI (M19-MEL melanoma) was > 100 µM and the TGI (SF-295 CNS) was > 100 µM. For the same molecule, the TGI (U251 CNS) was > 100 µM, the TGI (MOLT-4 leukemia) was > 100 µM and the TGI (RPMI-8226 leukemia) was > 100 µM. The TGI (HCT-116 colon) was > 100 µM, the TGI (KM12 colon) was > 100 µM and the TGI (OVCAR-4 ovarian) was > 100 µM. The TGI (HOP-92 NSCLC) was > 100 µM, the TGI (SF-268 CNS) was > 100 µM and the TGI (SNB-19 CNS) was > 100 µM. For the same molecule, the TGI (A498 renal) was > 100 µM, the TGI (NCI-H460 lung) was > 100 µM and the TGI (SK-MEL-5 melanoma) was > 100 µM. The TGI (HCT-15 colon) was > 100 µM, the TGI (UO-31 renal) was > 100 µM and the TGI (SK-OV-3 ovarian) was > 100 µM. For the same molecule, the TGI (DLD-1 colon) was > 100 µM, the TGI (HOP-62 NSCLC) was > 100 µM and the TGI (XF 498 CNS) was > 100 µM.

In the case of `Cc1cc2c(c(C=Nc3ccc(N(C)C)cc3)c1)OC1(C=C2)Oc2ccccc2C(=O)N1C` (configuration not stated), the TGI (HS 578T breast) is reported as > 90.4 µM, the TGI (LOX IMVI melanoma) is reported as 29.7 µM and the TGI (MCF7 breast) is reported as 37.9 µM. The TGI (UACC-62 melanoma) was 26.7 µM, the TGI (SK-MEL-28 melanoma) was 29.7 µM and the TGI (NCI-H522 lung) was 36.9 µM. The TGI (EKVX NSCLC) was 27.1 µM, the TGI (NCI-H226 lung) was 70.2 µM and the TGI (MALME-3M melanoma) was 33.4 µM. For the same molecule, the TGI (COLO 205 colon) was 33.9 µM, the TGI (DU-145 prostate) was 27.9 µM and the TGI (RXF 393 renal) was > 58 µM. For the same molecule, the TGI (HL-60(TB) leukemia) was 19.9 µM, the TGI (MDA-MB-231 breast) was 24.8 µM and the TGI (A549 NSCLC) was 55.6 µM. The TGI (OVCAR-8 ovarian) was 42.9 µM, the TGI (SF-539 CNS) was 28.2 µM and the TGI (SW-620 colon) was 35.6 µM. For the same molecule, the TGI (TK-10 renal) was 30.7 µM, the TGI (M14 melanoma) was 30 µM and the TGI (IGROV1 ovarian) was 27.1 µM. It also gave a TGI (CCRF-CEM leukemia) of 17.5 µM, a TGI (HT29 colon) of 57.2 µM and a TGI (SNB-75 CNS) of 39.5 µM. It also gave a TGI (MDA-N) of 28.1 µM, a TGI (T-47D breast) of 57.5 µM and a TGI (UACC-257 melanoma) of 28.1 µM. The TGI (OVCAR-5 ovarian) was 32.4 µM, the TGI (HCC-2998 colon) was 30.2 µM and the TGI (CAKI-1 renal) was 28 µM. The TGI (NCI-H23 lung) was 28.4 µM, the TGI (ACHN renal) was 25.5 µM and the TGI (K-562 leukemia) was 21.1 µM. For the same molecule, the TGI (SN12C renal) was 30 µM, the TGI (OVCAR-3 ovarian) was > 50.1 µM and the TGI (NCI/ADR-RES ovarian) was > 60.7 µM. For the same molecule, the TGI (SF-295 CNS) was 46.5 µM, the TGI (SK-MEL-2 melanoma) was > 54.8 µM and the TGI (BT-549 breast) was 29.4 µM. The TGI (MDA-MB-435) was 26.7 µM, the TGI (U251 CNS) was 28.7 µM and the TGI (MOLT-4 leukemia) was 23.5 µM. It also gave a TGI (RPMI-8226 leukemia) of 31.1 µM, a TGI (HCT-116 colon) of 21.6 µM and a TGI (KM12 colon) of 31 µM. For the same molecule, the TGI (OVCAR-4 ovarian) was 25.1 µM, the TGI (HOP-92 NSCLC) was 44.8 µM and the TGI (786-0 renal) was 28.2 µM. For the same molecule, the TGI (SF-268 CNS) was 45.4 µM, the TGI (SR leukemia) was > 100 µM and the TGI (SNB-19 CNS) was 24.5 µM. For the same molecule, the TGI (A498 renal) was 42.1 µM, the TGI (NCI-H460 lung) was 36.5 µM and the TGI (SK-MEL-5 melanoma) was 27.6 µM. The TGI (HCT-15 colon) was 27.6 µM, the TGI (UO-31 renal) was 23.2 µM and the TGI (SK-OV-3 ovarian) was 66.6 µM. The TGI (HOP-62 NSCLC) was > 67.5 µM and the TGI (PC-3 prostate) was > 52.5 µM.
